# Measurements from patent US20230331803A1, “CO-AGONISTS OF THE GLP-1 AND AMYLIN RECEPTORS” (priority 2020, published 2023).
# Read-outs that look alike come from different tables or passages of the source. Starred links: 1 amine or outer side, 2 acyl side, 3 side chain; linkers in the order of their positions; H or OH if unused. Positions of bridges follow the written chain, without caps; N, C: chain ends. Non-standard residues stand in square brackets, D forms with d. Groups on a side chain read outwards from the residue. *: point of attachment. X1 = O=C(O)CCCCCCCCCCCCCCC(=O)N[C@@H](CCC(=O)NCCOCCOCC(=O)NCCOCCOCC(=O)NCCCC[C@H](NC(=O)COCCOCCNC(=O)COCCOCCNC(=O)CC[C@H](NC(=O)CCCCCCCCCCCCCCC(=O)O)C(=O)O)C(=O)*)C(=O)O; Butyryl(4-SO2NHCO(CH2)16Tz) = O=C(CCCCCCCCCCCCCCCCc1nnn[nH]1)NS(=O)(=O)CCCC(=O)*; Undecanoyl(11-OPh(4-COOH)) = O=C(O)c1ccc(OCCCCCCCCCCC(=O)*)cc1; Hexadecanoyl(16-SO3H) = O=C(CCCCCCCCCCCCCCCS(=O)(=O)O)*; C20 diacid = O=C(O)CCCCCCCCCCCCCCCCCCC(=O)*; C18 diacid = O=C(O)CCCCCCCCCCCCCCCCC(=O)*; C16 diacid = O=C(O)CCCCCCCCCCCCCCC(=O)*; γGlu = O=C(O)[C@H](CCC(=O)[*:2])N[*:1]; C14 diacid = O=C(O)CCCCCCCCCCCCC(=O)*; εLys = N[C@@H](CCCCN[*:1])C(=O)[*:2]; Trx = NC[C@H]1CC[C@H](C(=O)O)CC1; AEEA = NCCOCCOCC(=O)O; Aib = CC(C)(N)C(=O)O
# Tests used:
# [1] = biological target: T1, human amylin receptor (hAmyR3) (Homo sapiens, UniProt O60896+P30988); experiment: Human amylin receptor in vitro potency assay (CRE-luciferase reporter, BHK cells); format: cell-based;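 note: BHK cells expressing human calcitonin receptor plus RAMP3 (amylin-3 receptor) with a CRE-luciferase reporter, agonist activity read as luminescence from cAMP-driven transcription, 7-point serial dilutions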
# T1 construct: host or cells: BHK cells (Hollex-1 line: human calcitonin receptor (a) + CRE-Luc), further transfected with human RAMP3
# Description: Activation of hAmyR3 leads to increased cellular concentrations of cAMP. Consequently, transcription is activated by promotors containing multiple copies of the cAMP response element (CRE). It is thus possible to measure hAmyR3 activity using a CRE-luciferase reporter gene introduced into Baby Hamster Kidney (BHK) cells co-expressing the hAmyR3.
# The cell line was further transfected with human receptor modifying protein 3 (RAMP3) using standard methods. This turns the human calcitonin receptor into a human amylin-3(a) receptor.
# (§1) Cells were aliquoted and stored at -180° C. until use.
# The plate was incubated over night at 37° C. in 5% CO2. On the day of the assay, cells were washed three times in assay buffer. Serial dilutions (7-fold dilutions, 7 concentrations pr. compound and one well containing only assay buffer) of comparator compounds and GLP-1 receptor-amylin receptor co-agonists were performed in assay buffer often starting from approximately 10-100 nM in 96-well plates and 30 µL of each concentration added to the 384-well assay plate with cells. […] The assay plate was sealed, incubated at room temperature with gentle shaking for 5 minutes followed by 30 minutes incubation without shaking while protected from light. Luminescence was detected on a luminescence plate reader e.g. a Synergy 2 (BioTek).
# human GLP-1 receptor = biological target: T2, human GLP-1 receptor (Homo sapiens, UniProt P43220); experiment: Human GLP-1 receptor in vitro potency assay (CRE-luciferase reporter, BHK cells); format: cell-based
# T2 construct: expressed in transfected cells; host or cells: BHK (Baby Hamster Kidney) cells, clone BHK 467-12A KZ-10, stably transfected, with CRE-luciferase reporter
# Protocol: It is thus possible to measure GLP-1 receptor activity using a CRE-luciferase reporter gene introduced into Baby Hamster Kidney (BHK) cells co-expressing the GLP-1 receptor.
# as §1
# Plates were sealed and incubated at room temperature with gentle shaking for 30 minutes while protected from light. Luminescence was detected on a luminescence plate reader e.g. a Synergy 2 (BioTek).
# [2] = Table 4a, BHK hAmyR3/CRE-Luc cells, 3 hours, read-out: Human AmyR3 potency [EC50 (pM)]
# [3] = Table 4a, BHK cells expressing human GLP-1R, CRE-Luc, 3 hours, read-out: Human GLP-1R potency [EC50 (pM)]
# T1 sequence (P30988 25-474): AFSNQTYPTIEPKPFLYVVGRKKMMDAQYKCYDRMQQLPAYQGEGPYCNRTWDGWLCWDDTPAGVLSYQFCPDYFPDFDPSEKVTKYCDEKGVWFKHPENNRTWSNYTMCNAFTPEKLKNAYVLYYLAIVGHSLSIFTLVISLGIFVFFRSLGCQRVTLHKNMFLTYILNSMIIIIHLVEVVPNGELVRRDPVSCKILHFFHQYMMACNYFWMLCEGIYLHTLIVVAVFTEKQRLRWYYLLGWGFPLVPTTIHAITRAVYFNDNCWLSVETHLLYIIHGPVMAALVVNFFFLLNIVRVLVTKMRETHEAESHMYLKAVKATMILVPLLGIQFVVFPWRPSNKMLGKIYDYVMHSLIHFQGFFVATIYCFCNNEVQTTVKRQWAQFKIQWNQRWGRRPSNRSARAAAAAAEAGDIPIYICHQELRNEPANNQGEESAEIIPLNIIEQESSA
# T1 sequence (O60896 24-148): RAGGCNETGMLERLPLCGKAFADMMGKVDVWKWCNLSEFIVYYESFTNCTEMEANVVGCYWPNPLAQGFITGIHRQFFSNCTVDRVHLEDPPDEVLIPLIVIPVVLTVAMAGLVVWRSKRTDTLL
# T2 sequence (P43220 24-463): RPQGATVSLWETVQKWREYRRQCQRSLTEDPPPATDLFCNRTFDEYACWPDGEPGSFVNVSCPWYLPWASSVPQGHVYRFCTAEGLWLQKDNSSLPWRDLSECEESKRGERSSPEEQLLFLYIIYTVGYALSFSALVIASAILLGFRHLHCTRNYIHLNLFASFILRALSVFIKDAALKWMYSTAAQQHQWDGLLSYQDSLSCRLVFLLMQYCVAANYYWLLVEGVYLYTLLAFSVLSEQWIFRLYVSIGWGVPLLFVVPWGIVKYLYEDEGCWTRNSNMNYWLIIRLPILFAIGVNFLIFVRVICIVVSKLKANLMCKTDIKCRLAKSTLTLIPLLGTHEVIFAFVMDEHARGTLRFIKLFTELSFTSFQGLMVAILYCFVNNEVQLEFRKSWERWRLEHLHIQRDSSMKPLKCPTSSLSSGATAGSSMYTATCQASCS
Substance,"EC50 [1, 2]",EC50 (human GLP-1 receptor; [3]),also measured
H-HAEGTFTSDVSK([AEEA-AEEA-γGlu-C16 diacid])YLEEQAVREFIAK([AEEA-AEEA-γGlu-C16 diacid])LVRGRGGGEASELSTAALGRLSAELHELATLPRTETGSGSP-NH2 [Compound 0482],31.8 pM,36.5 pM,–
H-HAEGTFTSDVSSYLEEK([AEEA-AEEA-γGlu-C20 diacid])AAREFIEWLVRGRGEASELSTAALGRLSAELHELATLPRTETGSGSP-NH2 [Compound 0474],21.8 pM,2.9 pM,–
H-HAEGTFTSDVSSYLEEK([AEEA-AEEA-γGlu-Trx-C20 diacid])AAREFIEWLVRGRGEASELSTAALGRLSAELHELATLPRTETGSGSP-NH2 [Compound 0414],17.7 pM,11.2 pM,–
H-HGEGTFTSDVSSYLEEQAARK([AEEA-AEEA-γGlu-C14 diacid])FIEWLVRGK([AEEA-AEEA-γGlu-C14 diacid])GEASELSTAALGRLSAELHELATLPRTETGSGSP-NH2 [Compound 0039],59.5 pM,34.8 pM,–
H-HGEGTFTSDVSSYLEEQAARK([AEEA-AEEA-γGlu-C18 diacid])FIEWLVRGK([AEEA-AEEA-γGlu-C18 diacid])GEGGEASELSTAALGRLSAELHELATLPRTETGSGSP-NH2 [Compound 0090],70.9 pM,32.6 pM,–
H-HWEGTFTSDVSSYLEEQAARK([AEEA-AEEA-γGlu-Undecanoyl(11-OPh(4-COOH))])FIEWLVRGRGEGGGGGASELSTAALGRLSK([AEEA-AEEA-γGlu-Undecanoyl(11-OPh(4-COOH))])ELHELATLPRTETGSGSP-NH2 [Compound 0255],–,–,EC50 [1]: 28.6 pM; EC50 (human GLP-1 receptor): 2.5 pM
H-H[Aib]EGTFTSDK([AEEA-AEEA-γGlu-C16 diacid])SSYLEEQAAREFIAWLVRGRGGGGGEASELSTAALGRLSAELHELATLK([AEEA-AEEA-γGlu-C16 diacid])RTETGSGSP-NH2 [Compound 0261],23.9 pM,17.4 pM,–
H-H[Aib]EGTFTSDK([AEEA-AEEA-γGlu-C16 diacid])SSYLEEQAAREFIAWLVRGRGGGGGEASELSTAALGRLSAELHELK([AEEA-AEEA-γGlu-C16 diacid])TLPRTETGSGSP-NH2 [Compound 0260],41.8 pM,11.9 pM,–
H-H[Aib]EGTFTSDVSK([AEEA-AEEA-γGlu-C14 diacid])YLEEQAVREFIAK([AEEA-AEEA-γGlu-C14 diacid])LVRGRGGGEASELSTAALGRLSAELHELATLPRTETGSGSP-NH2 [Compound 0484],32.5 pM,72.8 pM,–
H-H[Aib]EGTFTSDVSK([AEEA-AEEA-γGlu-C16 diacid])YLEEQAVREFIAK([AEEA-AEEA-γGlu-C16 diacid])LVRGRGGGEASELSTAALGRLSAELHELATLPRTETGSGSP-NH2 [Compound 0483],36.8 pM,33.7 pM,–
H-H[Aib]EGTFTSDVSK([γGlu-γGlu-γGlu-γGlu-C16 diacid])YLEEQAARK([γGlu-γGlu-γGlu-γGlu-C16 diacid])FIAWLVRGRGEASELSTAALGRLSAELHELATLPRTETGSGSP-NH2 [Compound 0634],59.4 pM,14.7 pM,–
H-H[Aib]EGTFTSDVSK([γGlu-γGlu-γGlu-γGlu-C20 diacid])YLEEQAAREFIEWLVRGAAEASELSTAALGRLSAELHELATLPRTETGSGSP-NH2 [Compound 0632],148 pM,18.8 pM,–
H-H[Aib]EGTFTSDVSSYLEEK([AEEA-AEEA-γGlu-C16 diacid])AAREFIAWLVRGRGGGGGASELSTAALGRLSK([AEEA-AEEA-γGlu-C16 diacid])ELHELATLPRTETGSGSP-NH2 [Compound 0295],32.7 pM,4.8 pM,–
H-H[Aib]EGTFTSDVSSYLEEK([AEEA-AEEA-γGlu-C16 diacid])AAREFIAWLVRGRGGGGGEASELSTAALGRLSAELHELATLK([AEEA-AEEA-γGlu-C16 diacid])RTETGSGSP-NH2 [Compound 0397],18.5 pM,3.8 pM,–
H-H[Aib]EGTFTSDVSSYLEEK([AEEA-AEEA-γGlu-C16 diacid])AAREFIAWLVRGRGGGGGEASELSTAALGRLSAELHK([AEEA-AEEA-γGlu-C16 diacid])LATLPRTETGSGSP-NH2 [Compound 0299],11.5 pM,6 pM,–
H-H[Aib]EGTFTSDVSSYLEEQAAREFIAWLVK([AEEA-AEEA-γGlu-C18 diacid])GRGGGGGEASELSTAALGRLSAELHELATLPRTETGSGSP-NH2 [Compound 0144],16.8 pM,7.1 pM,–
H-H[Aib]EGTFTSDVSSYLEEQAAREFIAWLVRGK([AEEA-AEEA-γGlu-C16 diacid])GGGGGEASELSTAALGRLSAELHELATLK([AEEA-AEEA-γGlu-C16 diacid])RTETGSGSP-NH2 [Compound 0284],32.8 pM,41.7 pM,–
H-H[Aib]EGTFTSDVSSYLEEQAAREFIAWLVRGK([AEEA-AEEA-γGlu-C16 diacid])GGGGGEASELSTAALGRLSAELHELATLPRTETGK([AEEA-AEEA-γGlu-C16 diacid])GSP-NH2 [Compound 0285],78.9 pM,19 pM,–
H-H[Aib]EGTFTSDVSSYLEEQAAREFIAWLVRGK([AEEA-AEEA-γGlu-C16 diacid])GGGGGEASELSTAALGRLSAELHK([AEEA-AEEA-γGlu-C16 diacid])LATLPRTETGSGSP-NH2 [Compound 0280],18 pM,34.3 pM,–
H-H[Aib]EGTFTSDVSSYLEEQAAREFIAWLVRGRK(Butyryl(4-SO2NHCO(CH2)16Tz))ELSTAALGRLSAELHELATLPRTETGSGSP-NH2 [Compound 0102],9.8 pM,14.7 pM,–
H-H[Aib]EGTFTSDVSSYLEEQAAREFIAWLVRGRK([AEEA-AEEA-AEEA-AEEA-γGlu-C20 diacid])GGGGEASELSTAALGRLSAELHELATLPRTETGSGSP-NH2 [Compound 0663],12.6 pM,3.2 pM,–
H-H[Aib]EGTFTSDVSSYLEEQAAREFIAWLVRGRK([AEEA-AEEA-AEEA-γGlu-C18 diacid])GGGGEASELSTAALGRLSAELHELATLPRTETGSGSP-NH2 [Compound 0661],14.4 pM,2.8 pM,–
H-H[Aib]EGTFTSDVSSYLEEQAAREFIAWLVRGRK([AEEA-AEEA-γGlu-C18 diacid])GGEASELSTAALGRLSAELHELATLPRTETGSGSP-NH2 [Compound 0114],17.5 pM,1 pM,–
"H-H[Aib]EGTFTSDVSSYLEEQAAREFIAWLVRGRK([AEEA-AEEA-γGlu-C18 diacid])GGGGEKCNTATCATQRLANFLVHSSNNFGPILPPTNVGSNTY-NH2 (disulfide 38-43 (inferred)) [Comparator compound 0671, reference compound]",–,–,"EC50 [1]: 230 pM; Ability to agonise the amylin receptor, in words ([1]; Tables 4a-4c): impaired potency on the amylin receptor; EC50 (human GLP-1 receptor): 4.5 pM; Ability to agonise the GLP-1 receptor, in words (human GLP-1 receptor; Tables 4a-4c): retained their potencies on the GLP-1 receptor"
H-H[Aib]EGTFTSDVSSYLEEQAAREFIAWLVRGRK([AEEA-AEEA-γGlu-C20 diacid])GGGGSGGGEASELSTAALGRLSAELHELATLPRTETGSGSP-NH2 [Compound 0638],6.9 pM,4.6 pM,–
H-H[Aib]EGTFTSDVSSYLEEQAAREFIAWLVRGRK([AEEA-AEEA-γGlu-Hexadecanoyl(16-SO3H)])GGGGEASELSTAALGRLSAELHELATLPRTETGSGSP-NH2 [Compound 0654],11.3 pM,2.9 pM,–

# The remaining substances from weak to strong by EC50 [1, 2], led by results:
"EC50 [1, 2]",EC50 (human GLP-1 receptor; [3]),Substance,also measured
114 pM,35.2 pM,H-H[Aib]EGTFTSDVSSYLEEQAAREFIAWLVRGK([AEEA-AEEA-γGlu-C16 diacid])GGGGGEASELSTAALGRLSAELHELK([AEEA-AEEA-γGlu-C16 diacid])TLPRTETGSGSP-NH2 [Compound 0281],–
97.9 pM,23.8 pM,H-HGEGTFTSDVSSYLEEQAARK([AEEA-AEEA-γGlu-C16 diacid])FIEWLVRGK([AEEA-AEEA-γGlu-C16 diacid])GEGGEASELSTAALGRLSAELHELATLPRTETGSGSP-NH2 [Compound 0087],–
97.5 pM,7.9 pM,H-H[Aib]EGTFTSDVSK([AEEA-AEEA-γGlu-C16 diacid])YLEEQAARK([AEEA-AEEA-γGlu-C16 diacid])FIEWLVRGAAEASELSTAALGRLSAELHELATLPRTETGSGSP-NH2 [Compound 0629],–
34.9 pM,3 pM,H-H[Aib]EGTFTSDVSSYLEEQAAREFIAWLVRGK([AEEA-AEEA-γGlu-C18 diacid])GGEASELSTAALGRLSAELHELATLPRTETGSGSP-NH2 [Compound 0132],–
32.8 pM,4.8 pM,H-H[Aib]EGTFTSDVSSYLEEK([AEEA-AEEA-γGlu-C16 diacid])AAREFIAWLVRGRGGGGGEASELSTAALGRLSAELHELK([AEEA-AEEA-γGlu-C16 diacid])TLPRTETGSGSP-NH2 [Compound 0396],–
22.8 pM,2.2 pM,H-H[Aib]EGTFTSDVSSYLEEQAAREFIAWLVRGRK([AEEA-AEEA-γGlu-C18 diacid])EASELSTAALGRLSAELHELATLPRTETGSGSP-NH2 [Compound 0115],–
16.5 pM,11.9 pM,H-H[Aib]EGTFTSDVSSYLEEQAAREFIAWLVRGRGK(Butyryl(4-SO2NHCO(CH2)16Tz))GGGASELSTAALGRLSAELHELATLPRTETGSGSP-NH2 [Compound 0145],–
14.6 pM,3 pM,H-H[Aib]EGTFTSDVSSYLEEQAAREFIAWLVRGRK([AEEA-AEEA-AEEA-AEEA-γGlu-C18 diacid])GGGGEASELSTAALGRLSAELHELATLPRTETGSGSP-NH2 [Compound 0662],–
14.5 pM,24.5 pM,H-H[Aib]EGTFTSDVSK([AEEA-X1])YLEEQAAREFIAWLVRGRGGGGGEASELSTAALGRLSAELHELATLPRTETGSGSP-NH2 [Compound 0564],–
14.1 pM,1.9 pM,H-H[Aib]EGTFTSDVSSYLEEQAAREFIAWLVRGRK([AEEA-AEEA-γGlu-C18 diacid])GGGGSGGGEASELSTAALGRLSAELHELATLPRTETGSGSP-NH2 [Compound 0637],–
11.8 pM,12 pM,H-HWEGTFTSDVSSYLEEQAARK([εLys-AEEA-AEEA-γGlu-Trx-C20 diacid])FIEWLVRGRGEASELSTAALGRLSAELHELATLPRTETGSGSP-NH2 [Compound 0437],–
